Measured values taken from article PMC3159909, “Alliinase from Ensifer adhaerens and Its Use for Generation of Fungicidal Activity” (AMB Express, 2011).
Read-outs that look alike come from different tables or passages of the source.

Tested on: T1, P-19486 alliinase
T1 construct: homodimer 96 kDa, subunit 48 kDa; PLP-dependent
Assay: colorimetric pyruvic acid production
Type: biochemical, Ensifer adhaerens
Conditions: 20 uM PLP, 50 mM sodium phosphate pH 7.0, 30°C, read-out: Kinetic constants / Km
From the text: colorimetric pyruvic acid production on P-19486 alliinase

C=CC[S+]([O-])C[C@H](N)C(=O)O (mixture of isomers) [(±)-Alliin]
Km (diastereomer mixture): 2.3 mM

C=CC[S@+]([O-])C[C@H](N)C(=O)O [(+)-Alliin]
Km: 5.7 mM

C=CCSC[C@H](N)C(=O)O [S-Allyl-L-cysteine]
Km: 10.6 mM
